Experimental data from patent US12391990B2, “Determination of magnesium body concentration” (Vanderbilt University, priority 2019, dated 2025).

Tests used:
[1] = system: 5-hmC levels in rectal tissues; assay: 5-hmC affinity enrichment sequencing of pre- and post-treatment rectal tissues; format: in vivo, human; conditions: rectal tissue
Protocol: 5-hmC alterations induced by Mg treatment. As mentioned, due to technological limitations, distinguishing 5-hmC from 5-mC has only recently been possible. Using the technology an evaluation was conducted of 5-hmC in normal rectal mucosa collected at baseline from 7 participants of the PPCCT. 5-hmC-specific affinity pull-down^142 samples were sequenced using the Illumina next-generation sequencing (50 bp single-end). The raw sequencing reads were mapped to the human genome reference (hg19) using Bowtie2^153. 5-hmC peaks (i.e. enriched 5-hmC regions) were then called using the MACS algorithm^154. There are two important findings. 1) There are approximately 13,000-15,000 high quality 5-hmC peaks across the genomes at p<1e-5 calculated by MACS.
Genome-wide 5-hmC was also measured in pre- (i.e. baseline) and post-treatment rectal tissues (i.e. after 3-month Mg supplementation). In this analysis, one individual was included in the treatment arm and the other in the placebo arm. Two-hundred ninety-six (296) and 1271 genes were found with ≥4-fold or ≥3-fold changes in 5-hmC levels from baseline, respectively, in the treatment arm compared to 39 and 176 in the placebo arm (Table 1). Thus, the treatment arm has a much larger number of affected genes than the placebo arm.
Furthermore, the majority of the changes found in 5-hmC caused by Mg treatment are up-modifications, very consistent with findings from in vitro and in vivo studies of vitamin C treatment^86;87.

[2] = Magnesium tolerance test (MTT), percent Mg retention from 24-hour urine; format: in vivo, human; conditions: after 12-week Mg supplementation, ongoing trial
Excerpt: In a magnesium tolerance test, a health care professional, such as a doctor, gives a participant a shot of a known amount of magnesium and then later uses the participant's urine to determine how much magnesium the participant's body retained, and how much the body eliminated.
In an exemplary study as described herein, participants who completed the study received a schedule of planned magnesium tolerance tests on two consecutive days. A 24-hour urine sample was collected for determining the basal urinary magnesium excretion prior to the intravenous infusion of magnesium sulfate. Another 24-hour urine sample was obtained starting with the IV infusion.
• 1. […] Percentage magnesium retained is calculated by the formula below (Mg: magnesium) […]
A Mg tolerance test, the most accurate approach to evaluate Mg nutriture, is conducted at the end of trial. […] For the Mg tolerance test, the participant's percent retention is calculated by the following formula: [1−(post infusion Mg excretion-pre infusion Mg excretion)/total Mg infused]×100. […]
MTT was conducted on 78 subjects in PPCCT. […] Urine magnesium level was measured using 7D70 Magnesium Reagent Kit from Abbot Laboratories (Abbott Park, TL). […] The absorbance of the arsenazo-magnesium complex is measured at 572 nm and is proportional to the concentration of magnesium present in the sample.

[3] = 49 days of Mg repletion after 3-month Mg depletion, previous human study, from 0.81 to 0.86, p=0.06; cited from earlier work
embryonic stem cells = conditions: vitamin C supplementation, cited from earlier work
[4] = system: 5-hmC and 5-mC in tissues; conditions: vitamin C supplementation, all three tissues; cited from earlier work
[5] = treatment arm, one individual, after 3-month Mg supplementation

## NCC(=O)[O-].NCC(=O)[O-].[Mg+2] [Mg]
[1]; Mg treatment
  Direction of the majority of changes in 5-hmC: up-modifications
[1]; [5]
  Number of genes with ≥3-fold change in 5-hmC peaks from baseline: 1271
  Number of genes with ≥4-fold change in 5-hmC peaks from baseline: 296
[2]
  Individuals who still had Mg deficiency (retention ≥50% in Mg tolerance test): 42%
[3]
  Increase in serum Mg: 6%

## O=C1O[C@H]([C@@H](O)CO)C(O)=C1O [vitamin C]
Embryonic stem cells; primarily up-modifications
  Number of genes with over 2-fold changes in expression: approximately 200
Embryonic stem cells
  Change in 5-hmC: genome-wide increase in 5-hmC
[4]
  5-hmC concentrations in tissues: significantly elevated
